Values of other authors as cited in publication PMC6835763, “Influence of Short Cationic Lipopeptides with Fatty Acids of Different Chain Lengths on Bacterial Biofilms Formed on Polystyrene and Hydrogel Surfaces” (Pharmaceutics, 2019).

Experiments:
Conditions in all cases: cited from earlier work
SA biofilms = system: SA biofilms; set-up: method as in PMID 24779193
PA biofilm = system: PA biofilm
Description: (§1) They were ineffective against PM, which was difficult to eradicate with peptides (and antibiotics) in previously performed studies. PM can cause infections of the urinary tract, skin, subcutaneous tissue, and wounds. PM is known as a biofilm former, and an evident increase of PM resistance to broad-spectrum fluoroquinolones and cephalosporins has been observed. In the previous study, mature PM b ...

EC biofilm = system: EC biofilm
Description: as §1

PM biofilm = system: PM biofilm
Description: as §1

| Compound | susceptibility of SA biofilms (SA biofilms) | activity against PA biofilm (PA biofilm) | activity against EC biofilms (EC biofilm) | susceptibility of mature PM biofilms (PM biofilm) | concentration eradicating the PM biofilm (PM biofilm; mature PM biofilms) [µg/mL] |
| --- | --- | --- | --- | --- | --- |
| O=C(N[C@H](CO)[C@H](O)c1ccc([N+](=O)[O-])cc1)C(Cl)Cl [chloramphenicol] | resistant | weak antibiofilm agents | rather weak activity | – | – |
| neomycin | resistant | weak antibiofilm agents | rather weak activity | resistant | – |
| citropin 1.1 | – | – | – | resistant | – |
| C16-KK-NH2 [Lipopeptide C16-KK-NH2] | – | – | – | – | 512 |
| pexiganan | – | – | – | resistant | – |
